Source: ChEMBL document CHEMBL4706688 (J Med Chem, 2021)

How the values were obtained:
[1] = target: T1, Tyrosine-protein kinase JAK2 (Homo sapiens, UniProt O60674); settings: HEK293F, dose 100.0 µM
cells = assay type: functional, tissue-based, UKE-1; settings: Homo sapiens, UKE1, 72 h
[2] = target: T1, Tyrosine-protein kinase JAK2; test: biochemical

T1 sequence (O60674 whole entry): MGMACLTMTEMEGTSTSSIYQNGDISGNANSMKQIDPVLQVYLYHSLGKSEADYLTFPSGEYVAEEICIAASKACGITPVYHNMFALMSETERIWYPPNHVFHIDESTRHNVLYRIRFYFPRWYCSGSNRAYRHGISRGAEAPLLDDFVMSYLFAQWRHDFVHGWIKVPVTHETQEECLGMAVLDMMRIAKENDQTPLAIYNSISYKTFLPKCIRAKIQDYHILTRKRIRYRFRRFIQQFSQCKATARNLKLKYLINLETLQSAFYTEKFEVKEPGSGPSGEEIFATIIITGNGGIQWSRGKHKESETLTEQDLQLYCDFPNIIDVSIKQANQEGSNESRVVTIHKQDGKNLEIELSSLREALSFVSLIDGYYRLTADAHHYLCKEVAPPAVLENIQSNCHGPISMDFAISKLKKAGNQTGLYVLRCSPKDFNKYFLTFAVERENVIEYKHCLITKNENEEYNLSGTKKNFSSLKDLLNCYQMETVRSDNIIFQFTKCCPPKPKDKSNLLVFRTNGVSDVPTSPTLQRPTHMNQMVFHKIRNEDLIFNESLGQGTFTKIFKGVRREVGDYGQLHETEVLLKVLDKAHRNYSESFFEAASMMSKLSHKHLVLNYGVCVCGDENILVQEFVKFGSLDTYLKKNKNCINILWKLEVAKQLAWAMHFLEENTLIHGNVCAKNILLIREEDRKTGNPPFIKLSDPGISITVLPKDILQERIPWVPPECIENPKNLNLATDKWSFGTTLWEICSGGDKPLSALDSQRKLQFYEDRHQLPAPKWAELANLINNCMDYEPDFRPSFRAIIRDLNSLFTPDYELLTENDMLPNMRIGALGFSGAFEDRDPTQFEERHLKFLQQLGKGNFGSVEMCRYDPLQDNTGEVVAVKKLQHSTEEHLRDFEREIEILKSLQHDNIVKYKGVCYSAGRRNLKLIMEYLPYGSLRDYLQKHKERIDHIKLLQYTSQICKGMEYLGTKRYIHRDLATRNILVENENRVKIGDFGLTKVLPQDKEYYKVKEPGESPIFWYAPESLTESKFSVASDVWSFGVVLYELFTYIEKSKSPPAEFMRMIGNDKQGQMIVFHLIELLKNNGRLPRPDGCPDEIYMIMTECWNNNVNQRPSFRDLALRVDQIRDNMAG

SMILES | ΔTm [1] [°C] | IC50 (cells) [nM] | IC50 [2] [nM]
N#CC[C@@H](C1CCCC1)n1cc(-c2nc(Nc3ccc(C4CCNCC4)cc3)nc3[nH]ccc23)cn1 | 8.3 |  | 
C=CCCn1cc(-c2nc(Nc3ccc(C4CCNCC4)cc3)nc3[nH]ccc23)cn1 | 6.4 | 620 | 
N#CCC(C1CCCC1)n1cc(-c2nc(Nc3ccc(C4CCNCC4)cc3)nc3[nH]ccc23)cn1 (racemic) | 11.8 |  | < 0.05
Cc1cnc(Nc2ccc(C3CCN(C)CC3)c(F)c2)nc1Nc1ccc2c(c1)N(S(=O)(=O)C(C)(C)C)CC2 | 4.3 | 210 | 
N#CCCn1cc(-c2nc(Nc3ccc(C4CCNCC4)cc3)nc3[nH]ccc23)cn1 | 7 | 4500 | 
Cc1cnc(Nc2cc(F)c(C3CCN(C)CC3)c(F)c2)nc1Nc1ccc(F)c(NS(=O)(=O)C(C)(C)C)c1 | 3.2 | 150 | 
Cc1cnc(Nc2ccc(OCCN3CCCC3)cc2)nc1Nc1cccc(S(=O)(=O)NC(C)(C)C)c1 [FEDRATINIB] |  | 660 | 
N#CC[C@H](C1CCCC1)n1cc(-c2nc(Nc3ccc(C4CCNCC4)cc3)nc3[nH]ccc23)cn1 | 12 |  | 
Cc1cnc(Nc2ccc(C3CCN(C)CC3)c(F)c2)nc1Nc1ccc(F)c(NS(=O)(=O)C(C)(C)C)c1 | 3.1 | 200 | 
